Test results taken from patent US3968204A, “Antibiotic A-2315” (priority 1975, dated 1976).
In brackets after ≈: the same amount, converted by molar mass.

Legend:
Treponema hyodysenteriae = experiment: Agar-dilution MIC, anaerobe; type: cell-based; conditions: Brachyspira hyodysenteriae; agar-dilution method; anaerobic
Excerpt: The A-2315 antibiotics are also active against anaerobic bacteria. In one aspect of this activity, the A-2315 antibiotics are active against Treponema hyodysenteriae, a cause of swine dysentery. The minimal concentrations of A-2315 factors which inhibit this organism, as determined by the agar-dilution method, are as follows: […]

Clostridium inocuum = experiment: MIC, anaerobic bacteria; type: cell-based
Eubacterium aerofaciens = experiment: MIC, anaerobic bacteria; type: cell-based; conditions: Collinsella aerofaciens
[1] = tested on: Peptostreptococcus intermedius; experiment: MIC, anaerobic bacteria; type: cell-based
[2] = tested on: Bacteriodes fragilis ssp. vulgates; experiment: MIC, anaerobic bacteria; type: cell-based
Fusobacterium nucleatum = experiment: MIC, anaerobic bacteria; type: cell-based
[3] = tested on: Fusobacterium necrophorum; experiment: MIC, anaerobic bacteria; type: cell-based
[4] = tested on: Staphylococcus aureus 3055; experiment: Protection of mice against experimental bacterial infection; type: in vivo; conditions: Staphylococcus aureus, 3055, sc, subcutaneous, two doses
Method: When two doses each of A-2315 factors were administered to mice in illustrative infections, the ED50 values [effective dose in mg/kg to protect 50 percent of the test aninals; see Warren Wick, et al., J. Bacteriol.
^ 2 Infecting challenges: S. aureus 3.16 × LD50 (ip)

[5] = tested on: Mycoplasma gallisepticum isolate 34159 (tylosin resistant); experiment: Broth-dilution MIC; type: cell-based; conditions: Mycoplasmoides gallisepticum
Excerpt: (§1) Another useful property of the A-2315 antibiotics is activity against Mycoplasma gallisepticum, an organism pathogenic for poultry. Of particular interest is the activity of the A-2315 antibiotics against strains of this organism that are resistant to tylosin. The minimal inhibitory concentrations of A-2315 factor A, as determined by in vitro broth-dilution studies, are summarized in Table V below: […]

[6] = tested on: Mycoplasma gallisepticum isolate 38502 (tylosin sensitive); experiment: Broth-dilution MIC; type: cell-based; conditions: Mycoplasmoides gallisepticum
Excerpt: as §1

[7] = tested on: Mycoplasma gallisepticum isolate 41313 (tylosin resistant); experiment: Broth-dilution MIC; type: cell-based; conditions: Mycoplasmoides gallisepticum
Excerpt: as §1

[8] = tested on: Mycoplasma gallisepticum isolate 42854 (tylosin resistant); experiment: Broth-dilution MIC; type: cell-based; conditions: Mycoplasmoides gallisepticum
Excerpt: as §1

[9] = tested on: Mycoplasma gallisepticum isolate 43480 (tylosin resistant); experiment: Broth-dilution MIC; type: cell-based; conditions: Mycoplasmoides gallisepticum
Excerpt: as §1

Mycoplasma gallisepticum = experiment: Activity in chicks infected with Mycoplasma gallisepticum; type: in vivo, chickens
Method: The antibiotic factor was prepared in polyethylene glycol 200 and injected subcutaneously in the neck.

Streptococcus mutans = experiment: Broth-dilution growth inhibition of cariogenic organism; type: cell-based; conditions: read-out: growth inhibiting concentration
Method: (§2) In another aspect of the present invention, the A-2315 antibiotics have the ability to inhibit the growth of microorganisms contributing to the development of periodontal disease. In broth-dilution tests, A-2315 factor A inhibits the growth of the cariogenic organism Streptococcus mutans at concentrations of 1-2 μg/ml and inhibits the growth of cariogenic filamentous rods at a concentration as low as 0.1 μg/ml.

[10] = tested on: cariogenic filamentous rods; experiment: as above; type: cell-based; conditions: read-out: growth inhibiting concentration (as low as)
Method: as §2

[11] = tested on: cariogenic Streptococcus sp.; experiment: Artificial plaque glass rod test; type: cell-based; conditions: 0.1% solution, contact with plaque-encrusted rods as little as 5 minutes
Method: Narrow glass rods, which extend below the surface of the nutrient broth, are inserted into the tubes. After incubation at 37°C. overnight, a layer of artificial plaque (primarily cells and dextran) forms on the surface of the rods. The rods are then transferred to solutions containing varying concentrations of test compound and are allowed to remain in contact with these solutions for periods of 5, 10, and 15 minutes. After the appropriate time has elapsed, the rods are rinsed by dipping in sterile, deionized water; the rods are then incubated overnight at 37°C. in uninoculated medium containing sucrose and bromothymol blue. Growth is detected by observing the color change of bromothymol blue from green to yellow, due to acid production by the organisms when grown in a sucrose-containing medium.

[12] = tested on: anthracnose (Colletotrichum lagenarium); type: in vivo; conditions: 400 ppm
Excerpt: In yet another aspect of the invention, the A-2315 antibiotics are useful as plant-fungicidal agents.

Electrometric titration = type: physicochemical; conditions: 66 percent dimethylformamide in water
Method: Antibiotic A-2315 factor A is a white, amorphous solid, having a molecular weight of 503.2638, as determined by mass spectrometry, and an elemental analysis as follows: 61.51 percent carbon, 7.51 percent hydrogen, 8.69 percent nitrogen, and 21.53 percent oxygen. […] The specific rotation of A-2315 factor A is -132° when determined at a temperature of 27°C. in methanol in which the concentration of the antibiotic is 0.375 percent on a weight per volume basis.
Antibiotic A-2315 factor B is a white, amorphous solid, having a molecular weight of 501, as determined by mass spectrometry, and an elemental analysis as follows: 61.81 percent carbon, 7.02 percent hydrogen, 8.81 percent nitrogen, and 21.42 percent oxygen.
Antibiotic A-2315 factor C is a white, amorphous solid, having a molecular weight of 487, as determined by mass spectrometry, and an elemental analysis as follows: 61.04 percent carbon, 7.00 percent hydrogen, 7.96 percent nitrogen, and 22.61 percent oxygen. Based on elemental analysis and molecular weight, an empirical formula of C25 H33 N3 O7 is assigned to factor C.

[13] = tested on: Staphylococcus aureus 3055; experiment: Disc-plate MIC; conditions: Disc-Plate Method; benzylpenicillin-susceptible
[14] = tested on: Staphylococcus aureus 3074; experiment: Disc-plate MIC; conditions: Disc-Plate Method; benzylpenicillin-resistant, methicillin-resistant
Mycobacterium avium = experiment: Disc-plate MIC; conditions: Disc-Plate Method
Bacillus subtilis = experiment: Disc-plate MIC; conditions: Disc-Plate Method
[15] = 3 mg./chick, subcutaneous, at 14 Days, infected controls 7/7
[16] = surviving infected chickens, subcutaneous

`CC1=CC(O)CC(O)Cc2nc(co2)C(=O)NC(C)C(=O)OC(C(C)C)C(C)C=CC(=O)NCC=C1` (stereo not shown) [Factor A] gave an MIC (Treponema hyodysenteriae) of less than 0.195 µg/mL, an MIC (Clostridium inocuum) of 32 µg/mL (≈ 63.5 µM) and an MIC (Eubacterium aerofaciens) of 16 µg/mL (≈ 31.8 µM). For the same molecule, the MIC [1] was 8 µg/mL (≈ 15.9 µM), the MIC [2] was 64 µg/mL (≈ 127 µM) and the MIC (Fusobacterium nucleatum) was 128 µg/mL (≈ 254 µM). The MIC [3] was 16 µg/mL (≈ 31.8 µM), the ED50 ([4]; Test I, challenge 4000 × LD50 (ip)) was 90 mg/kg and the ED50 ([4]; Test II, challenge 3.16 × LD50 (ip)) was 45.7 mg/kg. The MIC [5] was 0.195 µg/mL (≈ 0.387 µM), the MIC [6] was less than 0.097 µg/mL and the MIC [7] was 0.78 µg/mL (≈ 1.55 µM). The MIC [8] was 0.195 µg/mL (≈ 0.387 µM), the MIC [9] was less than 0.097 µg/mL and the “No. Died / No. in Group” value (Mycoplasma gallisepticum; 3 mg./chick, subcutaneous in neck, infected) was 12/20. For the same molecule, the “Dead Chicks: Air-Sac Lesions” value (Mycoplasma gallisepticum; 3 mg./chick, subcutaneous, 3/9 not examined due to decomposition) was 9/9, the “Survivors: Air-Sac Lesions” value (Mycoplasma gallisepticum; [15]) was 0/8 and the “Survivors: MG Antibody” value (Mycoplasma gallisepticum; [15]) was 8/8. The “Survivors: Average Weight” value (Mycoplasma gallisepticum; 3 mg./chick, subcutaneous, at 14 Days, infected controls 100 gm., normal controls 214 gm.) was 133 gm, the signs of toxicity (Mycoplasma gallisepticum; infected chickens, in polyethylene glycol 200, subcutaneous in the neck) was “No signs of toxicity were seen, except for slight hemorrhage in the neck area in some of the treated chicks that died early” and the “incidence of air-sac lesions” value (Mycoplasma gallisepticum; [16]) was “lowered incidence of air-sac lesions”. The weight advantage (Mycoplasma gallisepticum; [16]) was “some weight advantage”, the MIC (Streptococcus mutans) was 1 to 2 µg/mL (≈ 1.99 to 3.97 µM) and the MIC [10] was 0.1 µg/mL (≈ 0.199 µM). For the same molecule, the “effect on cariogenic organism in artificial plaque” value [11] was “effective”, the “protection of cucumber plants” value [12] was “moderate protection” and the phytotoxicity ([12]; cucumber plants) was “Only slight phytotoxicity”. The titratable groups (Electrometric titration) was “did not indicate the presence of titratable groups”, the “solubility in organic solvents” value (Solubility) was “soluble” and the solubility in water (Solubility) was “only slightly soluble”. For the same molecule, the MIC [13] was 0.025 μg/disc, the MIC [14] was 0.4 μg/disc and the MIC (Mycobacterium avium) was 3.13 μg/disc. It also gave an MIC (Bacillus subtilis) of 50. μg/disc.
